Legend:
CypA = molecular target: T1, CypA (Homo sapiens, UniProt P62937); test: Competition anisotropy binding assay with A26-Fl; conditions: FP competition with 0.5 nM A26-Fl, 24 h
T1 construct: PPIA (UniProtKB Entry P62937: residues 1–165); made in house; host or cells: E. coli BL21(DE3)
Description: (§1) Adapted from previous work[52], cyclophilin in assay buffer (25 mM HEPES pH 8.0, 100 mM NaCl, 0.01% Triton X-100) at a pre-determined concentration from Supplementary Table 6 was incubated with 0.5 nM A26-Fl for 10 min at room temperature in a flat-bottom black untreated 96-well plate (Corning). Competitor macrocycle was then added to each well and incubated for 24 h. Final assay volume was 100 µL with 0.25% DMSO. Fluorescence anisotropy was then measured using a Tecan Spark plate reader using 492 nm/523 nm excitation/emission settings.

PPIL1 = molecular target: T2, PPIL1 (Homo sapiens, UniProt Q9Y3C6); test: Competition anisotropy binding assay with A26-Fl; conditions: FP competition with 0.5 nM A26-Fl, 24 h
T2 construct: PPIL1 (UniProtKB Entry Q9Y3C6: residues 1–166); made in house; host or cells: E. coli BL21(DE3)
T2 sequence (Q9Y3C6 1-166): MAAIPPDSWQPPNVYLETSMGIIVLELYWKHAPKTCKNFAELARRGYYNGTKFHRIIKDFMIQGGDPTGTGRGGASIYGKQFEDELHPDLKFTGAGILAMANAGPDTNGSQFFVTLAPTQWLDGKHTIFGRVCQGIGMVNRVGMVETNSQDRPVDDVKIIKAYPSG
Description: as §1

CypB = molecular target: T3, CypB (Homo sapiens, UniProt P23284); test: Competition anisotropy binding assay with A26-Fl; conditions: FP competition with 0.5 nM A26-Fl, 24 h
T3 construct: PPIB (UniProtKB Entry P23284: residues 34–216); His6 with TEV site (2BT vector leader) (N); made in house; host or cells: E. coli BL21(DE3)
T3 sequence (P23284 34-216): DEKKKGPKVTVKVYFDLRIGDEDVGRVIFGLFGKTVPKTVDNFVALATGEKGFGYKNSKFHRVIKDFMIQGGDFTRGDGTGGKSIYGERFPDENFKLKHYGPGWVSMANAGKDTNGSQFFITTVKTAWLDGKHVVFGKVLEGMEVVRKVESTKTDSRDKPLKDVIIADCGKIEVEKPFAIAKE
Description: as §1

PPIL3 = molecular target: T4, PPIL3 (Homo sapiens, UniProt Q9H2H8); test: Competition anisotropy binding assay with A26-Fl; conditions: FP competition with 0.5 nM A26-Fl, 24 h
T4 construct: PPIL3 (UniProtKB Entry Q9H2H8: residues 1–161); His6 tag with TEV site (2BT vector); SNA remnant stays on the N-terminus (N, cleaved yes); made in house; host or cells: E. coli BL21(DE3)
T4 sequence (Q9H2H8 whole entry, the tested form may be a part): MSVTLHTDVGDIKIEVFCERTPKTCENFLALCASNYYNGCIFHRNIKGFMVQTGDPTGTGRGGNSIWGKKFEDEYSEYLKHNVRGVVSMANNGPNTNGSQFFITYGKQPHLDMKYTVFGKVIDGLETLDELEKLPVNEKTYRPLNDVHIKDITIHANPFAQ
Description: as §1

Cyp40 = Cyp40 (Homo sapiens, UniProt Q08752); test: Competition anisotropy binding assay with A26-Fl; set-up: PPID (UniProtKB Entry Q08752: residues 1–183); made in house; host or cells: E. coli BL21(DE3); conditions: FP competition with 0.5 nM A26-Fl, 24 h
Sequence of Cyp40 (Q08752 1-183): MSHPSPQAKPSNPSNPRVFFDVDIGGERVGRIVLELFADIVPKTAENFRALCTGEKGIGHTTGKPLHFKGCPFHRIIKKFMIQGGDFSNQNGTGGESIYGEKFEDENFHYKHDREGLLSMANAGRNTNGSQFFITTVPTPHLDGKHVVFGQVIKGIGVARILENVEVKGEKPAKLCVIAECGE
Description: as §1

CypE K217A = molecular target: T5, CypE K217A (Homo sapiens, UniProt Q9UNP9, K217A); test: Chymotrypsin coupled prolyl-isomerase assay; format: biochemical
T5 construct: Lane 5- GS-CypE K217A (131-301);; His6 tag with thrombin site (pET28a LIC); GS remnant stays on the N-terminus (N, cleaved yes); host or cells: E. coli BL21(DE3)
T5 sequence (Q9UNP9 131-301 K217A): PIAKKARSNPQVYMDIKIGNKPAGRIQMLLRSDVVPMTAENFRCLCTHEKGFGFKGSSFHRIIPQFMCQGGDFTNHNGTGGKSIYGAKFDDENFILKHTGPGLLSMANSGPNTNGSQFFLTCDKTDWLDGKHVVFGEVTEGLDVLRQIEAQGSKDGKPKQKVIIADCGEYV
Method in brief: (§2)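 Chymotrypsin-coupled cis–trans isomerization of Suc-AAPF-AMC (5 µM) catalysed by 5 nM cyclophilin, run cold (2–3 °C) at pH 7.3 with 5 min compound preincubation.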

CypE K212A = molecular target: T6, CypE K212A (Homo sapiens, UniProt Q9UNP9, K212A); test: Chymotrypsin coupled prolyl-isomerase assay; format: biochemical; conditions: mutant CypE K212A; read-out: Mutant Cyclophilin Prolyl Isomerase Inhibition IC50 Values, CypE K212A
T6 construct: Lane 4- GS-CypE K212A (131-301);; His6 tag with thrombin site (pET28a LIC); GS remnant stays on the N-terminus (N, cleaved yes); host or cells: E. coli BL21(DE3)
T6 sequence (Q9UNP9 131-301 K212A): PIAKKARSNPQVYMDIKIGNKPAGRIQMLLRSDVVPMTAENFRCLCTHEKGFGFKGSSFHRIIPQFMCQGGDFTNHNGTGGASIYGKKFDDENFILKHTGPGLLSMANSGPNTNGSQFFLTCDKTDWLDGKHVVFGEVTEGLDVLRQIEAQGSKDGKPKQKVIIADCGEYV
Method in brief: as §2

CypD = CypD (Homo sapiens, UniProt P30405); test: Competition anisotropy binding assay with A26-Fl; set-up: PPIF (UniProtKB Entry P30405: residues 45–207); made in house; host or cells: E. coli BL21(DE3); conditions: FP competition with 0.5 nM A26-Fl, 24 h
Sequence of CypD (P30405 45-207): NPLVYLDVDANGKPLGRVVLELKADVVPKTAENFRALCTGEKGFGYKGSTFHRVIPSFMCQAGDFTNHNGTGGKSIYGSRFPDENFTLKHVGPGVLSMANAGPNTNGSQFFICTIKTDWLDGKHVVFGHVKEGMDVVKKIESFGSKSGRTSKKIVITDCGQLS
Description: as §1

His6-CypD = molecular target: T7, His6-CypD (Homo sapiens, UniProt P30405); test: Surface plasmon resonance analysis of CypD ligands; format: binding; conditions: immobilized CypD; read-out: KD CypD (SPR)
T7 construct: PPIF (UniProtKB Entry P30405: residues 45–207); made in house; host or cells: E. coli BL21(DE3)
T7 sequence (P30405 45-207): as above
Description: Adapting a previously used protocol, employing a Biacore T200 SPR, a Sensor S NTA (Biacore) chip was pre-loaded with 0.3 M NiCl2 and His6-CypD (50.24 nM, 1 µg mL^−1) within a solution of 10 mM HEPES, 150 mM NaCl, 0.005% Tween-20 and 1 mM TCEP (surface plasmon resonance (SPR) buffer). Protein was covalently immobilized subsequently with injection of 200 mM 1-ethyl-3-(3-dimethylaminopropyl)carbodiimide (EDC) 50 mM N-hydroxysuccinimide (NHS). EDC–NHS-activated chip was quenched by flowing 1 M ethanolamine over the chip. Compounds were dissolved in 1% DMSO/SPR buffer and flowed over the SPR chip. Binding analysis was conducted from raw sensorgram resonance unit (RU) values, where individual replicates represent kinetic fitted RU value during time of compound administration at each dose. RU values were normalized to DMSO treatment and the maximum RU value of 200 µM JOMBt. These values were evaluated using Prism v.9 by fitting one site-specific binding to calculate KD values.

T1 sequence (P62937 whole entry, the tested form may be a part): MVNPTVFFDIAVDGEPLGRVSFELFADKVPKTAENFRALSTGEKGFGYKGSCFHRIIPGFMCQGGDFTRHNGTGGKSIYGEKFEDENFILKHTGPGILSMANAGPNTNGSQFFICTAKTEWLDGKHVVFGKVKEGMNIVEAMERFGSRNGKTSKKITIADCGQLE

SMILES | Ki (CypA) [nM] | Ki (PPIL1) [nM] | Ki (CypB) [nM] | Ki (PPIL3) [nM] | Ki (Cyp40) [nM] | less potent at inhibiting K217A prolyl-isomerase activity compared to wild-type CypE (CypE K217A) [fold] | IC50 (CypE K217A; mutant CypE K217A, read-out: Mutant Cyclophilin Prolyl Isomerase Inhibition IC50 Values, CypE K217A) [nM] | IC50 (CypE K212A) [nM] | Ki (CypD) [nM] | Kd (His6-CypD) [nM]
NC(=O)C1CCNC(=O)C=CC(=O)N2CCCC(Cc3ccccc3)(C2)C(=O)NC(Cc2ccc(-c3ccc(C=O)c(B(O)O)c3)cc2)C(=O)NCc2ccccc2CC(=O)N1 (stereo not shown) [Compound C3A] | 1800 | 1100 | 5600 | > 10000 | > 10000 | 150 | 19 | 30 | 520 | –
NCCOCCNC(=O)C1CCNC(=O)C=CC(=O)N2CCCC(C2)C(=O)NC(Cc2ccco2)C(=O)NCc2ccccc2CC(=O)N1 (stereo not shown) [JOMBt] | – | – | – | – | – | – | – | – | – | 19000

Reference: PMC9596378, “Discovery and molecular basis of subtype-selective cyclophilin inhibitors” (Nature Chemical Biology, 2022)
